Laboratory results from US10945951B2, “Apparatus for compound dispersion” (Biogen MA Inc., priority 2014, dated 2021).

Experiments:
[1] = Live imaging of intrathecally injected Gd-DTPA in dog; type: in vivo
Procedure: For this experiment, an adult male two-year-old beagle was intrathecally injected at the L4-L5 space and live imaging was performed under anesthesia for five hours.
FIGS. 15C-15G show the signal counts corresponding to the presence of Gd-DTPA over the five hour monitoring period. The various monitored locations included the hippocampus, spinal column, substantia nigra, cortex, and striatum.

[2] = PET imaging of distribution of lumbar intrathecally injected 64Cu-DOTA, bolus volume and respiratory vest force; type: in vivo, Cynomolgus monkeys; conditions: lumbar intrathecal
Procedure: The ability of a time varying force applied to the torso of a patient and increased bolus volumes to enhance CNS exposure of intrathecally injected compounds was tested in cynomolgus monkeys. Specifically, live whole animal positron emission tomography (PET) imaging was used to monitor the distribution of intrathecally injected ^64Cu-DOTA given as a compound surrogate. This approach allowed the direct imaging of the impact of the convective force on compound spread in CSF and the exposure of the primate CNS to the compound. During the experiments, Cynomolgus monkeys were given a lumbar intrathecal injection of ^64Cu-DOTA in a volume of either 0.36 ml (about 3% of the total CSF volume) or 1.86 ml (about 15% of the total CSF volume), see FIG. 6. The 3% total CSF volume was chosen to mimic a typical lumbar intrathecal injection volume of about 5 ml that is used clinically. Following lumbar intrathecal injection, the animals were placed in a respiratory vest for 20 minutes. The vest was turned on for 20 minutes only for those animals in which the effect of the time varying force enhanced convection was tested. Animals wearing the vest without activating the time varying force feature served as controls. Animals were then imaged with PET scanning for a time window of 30-60 min post dosing.

[3] = SPECT imaging of two probes injected in a single bolus into lumbar cistern and cisterna magna; type: in vivo, rat; conditions: single 20 ml bolus, lumbar cistern and cisterna magna injection
Procedure: Two different probes including different isotopes were injected via a single […] bolus into rodents and then imaged at different energies. […] FIG. 8B depicts a structure of the second mitochondria targeting probe ^99mTc-Sestamibi. The bolus was injected into the lumbar cistern and the cisterna magna to help distinguish uptake into interstitial spaces versus uptake into intracellular compartments, see FIG. 8C. […] Consequently, it is apparent that the cell affinity of a compound for the structures and tissue within the CNS should be considered when determining the optimal parameters, such as injection site, bolus volume, and the applied forces, needed to ensure a compound reaches a desired target site.

[4] = 20 μl bolus, intrathecal
Procedure: The same amount of each probe was used in each injected bolus. However, the total bolus volumes for the separate injections were 20 μl and 30 μl followed by a 40 μl saline flush. The boluses were injected intrathecally into rodents and the concentration of the two probes was monitored at the lumbar, thoracic, and cervical regions.

## O=C([O-])CN(CCN(CC(=O)[O-])CC(=O)O)CCN(CC(=O)[O-])CC(=O)O.[Gd+3] [Gd-DTPA]
[1]; intrathecal injection at L4-L5, five hour monitoring period
  signal intensity over time in hippocampus, spinal column, substantia nigra, cortex and striatum: increase in the measured signal intensity over time
[1]; intrathecal injection at L4-L5, live imaging five hours
  location in the brain (cellular uptake vs interstitial spaces): not taken up into the cells but instead was located in the interstitial spaces of the brain

## O=C([O-])CN1CCN(CC(=O)O)CCN(CC(=O)[O-])CCN(CC(=O)O)CC1.[64Cu+2] [^64Cu-DOTA]
[2]; 3% CSF volume (0.36 ml), respiratory vest turned on 20 minutes, PET 30-60 min post dosing
  CNS exposure / compound spread in CSF: the entire spinal cord, and brainstem displayed exposure
[2]; 3% CSF volume (0.36 ml), vest not turned on, PET 30-60 min post dosing
  CNS exposure / compound spread in CSF: only reached the lower thoracic spinal cord
[2]; 15% CSF volume (1.86 ml), combined with time varying forces of the vest
  CNS exposure / compound spread in CSF: greatest rostral spread
[2]; 15% CSF volume (1.86 ml), vest not activated, PET 30-60 min post dosing
  CNS exposure / compound spread in CSF: exposure over the entire spinal cord and portions of the brainstem

## [C-]#[N+]CC(C)(C)OC.[C-]#[N+]CC(C)(C)OC.[C-]#[N+]CC(C)(C)OC.[C-]#[N+]CC(C)(C)OC.[C-]#[N+]CC(C)(C)OC.[C-]#[N+]CC(C)(C)OC.[Tc] [^99mTc-Sestamibi]
[3]
  distribution along the CNS: showed very little distribution along the CNS
[4]
  concentration in the lumbar region at injection: initially high concentration
  concentration over time in the thoracic and cervical regions: did not increase

## ^111In-DTPA
[3]
  distribution along the CNS: showed distribution from the injection site towards the head of the rodent along the CNS
